Test results from patent publication US20010014444A1, “Gene regulator fusion proteins and methods of using the same for determining resistance of a protein to a drug targeted thereagainst” (priority 1998, published 2001).

How the values were obtained:
[1] = tested on: inactive HIV protease (164) [D25E] (pL448.2); experiment: Blue/white colony color assay, HIV-PR-LacI fusion protein / β-galactosidase reporter two plasmid system; format: cell-based; conditions: E. coli containing pL448.2; Bluogal indicator media with arabinose inducer, supplemented with indinavir at various concentrations; also blue without indinavir
Experimental: Three E. coli strains, each containing a reporter plasmid for expression of β-galactosidase, and a HIV-PR-LacI expression plasmid for expression of a HIV-PR-LacI fusion protein, were tested using the blue/white color assay of the present invention. These strains were designed to be identical except for mutations within the HIV-PR regions, as set forth below:
Plasmid pL446.1 expresses a fusion protein containing HIV-PR and the LacI gene repressor. Expression is mediated by the ARAB promoter/operator and expression is induced by addition of arabinose sugar to the growth medium.
Media plates were prepared by adding to standard Luria Broth Agar, per liter of Luria Broth Agar, 2,000 μl of 100 mg/ml Ampicillin, 800 μl of 34 mg/ml Chloramrphenicol, 1 ml 1M IPTG. Similarly, indicator media was prepared by adding Bluogal (Life Technologies Inc.) to the media, 16.8 ml Bluogal stock (2% in dimethyl formamide) per liter of Luria Broth Agar. […] The E. coli strains were then plated onto the indicator media and allowed to grow for about 16 hours.

[2] = tested on: HIV-PR variants expressing the resistance-conferring mutations V82T or I84V; experiment: Colony color assay with site directed HIV-PR variants of known genotype; format: cell-based; conditions: plate with indinavir (MK-639) and Bluogal; only colonies with V82T or I84V variants were white; whiter with V82T and I84V than with V82T
Experimental: Site directed mutagensis was used to construct HIV-PR gene variants encoding the mutations 1) [D25E] […] These variant genes were put into fusion protein expression plasmids in the manner set forth in Example 1, and the resulting fusion protein expression plasmids and a β-galactosidase reporter plasmid expression were subcloned into E. coli, which were then plated on indicator media designed to report E. coli having HIV-PR activity as white colonies and E. coli without HIV-PR activity as blue colonies.
In the method of the present invention, β-galactosidase activity is regulated indirectly by activity of the HIV-PR in the fusion protein expression plasmid. All the E. coli cells used were identical and expressed similar HIV-PR-LacI fusion proteins, except that the HIV-PR genotype is different for different colonies.

Q: How did the “color of E. coli colonies on indicator media” value [1] turn out when CC(C)(C)NC(=O)[C@@H]1CN(Cc2cccnc2)CCN1C[C@@H](O)C[C@@H](Cc1ccccc1)C(=O)N[C@H]1c2ccccc2C[C@H]1O [indinavir] was run?
A: blue

Q: What about the “color of E. coli colonies on plate with indinavir and color indicator” value [2] of the same molecule?
A: white
